Test: Solubilisation of baicalin in alkaline water with or without polyquaternium-67
Format: physicochemical
Details: pH 10
Protocol: In Examples 1-3, a polyquaternium-67 (PQ-67) was dissolved in water to prepare a PQ-67 aqueous solution. Then, the pH of the solution was adjusted to 10 by adding 1M NaOH aqueous solution. Next, baicalin was added to the alkaline solution as much as possible. In the compositions according to Examples 1-3, […] was able to be solubilized up to an amount of 0.1% by weight, 0.2% by weight and 0.25% by weight, respectively, relative to the total weight of the composition.
On the other hand, in the composition according to Comparative Example 1 including no PQ-67, the solubilized amount of […] was limited only to 0.025% by weight relative to the total weight of the composition.
Thus, by forming a complex by the electrostatic interaction, the solubility of baicalin increased up to 10 folds.

O=C(O)[C@H]1O[C@@H](Oc2cc3oc(-c4ccccc4)cc(=O)c3c(O)c2O)[C@H](O)[C@@H](O)[C@@H]1O [baicalin]
increase of solubility of baicalin by complex formation with PQ-67: up to 10 folds
